Assay in all cases: NCI anticancer screen, dose series, 48 h
The subject of assay [1] is HOP-62 NSCLC.
Assay [2] deals with EKVX NSCLC.
The subject of assay [3] is T-47D breast.
The subject of assay [4] is CAKI-1 renal.
For assay [5], the system named is IGROV1 ovarian.
Assay [6] deals with SK-OV-3 ovarian.
For assay [7], the system named is OVCAR-8 ovarian.
Assay [8] deals with A498 renal.
Assay [9] concerns SNB-19 CNS.
Assay [10] concerns LOX IMVI melanoma.

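Tested at 5 concentrations; 48 h exposure; 96-well plates; endpoints linearly interpolated, else capped at highest concentration. TGI is the concentration that stops growth completely.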

Consider `Cn1c(=O)c2c(no[n+]2[O-])c2ccccc21`, for which the TGI in assay [1] was determined as 35.9 µM; in [2], 46.1 µM; in assay [3], 68.3 µM; in assay [4] it was 32.4 µM; in [5], 31.4 µM; in [6] it was 77 µM. For the same compound, the TGI in [7] came out at 28.3 µM; in [8], 70.2 µM; in assay [9], 84.2 µM; in assay [10], 31.4 µM.

Regarding `CC(=O)Nc1ccc(-c2nc3cc(Cl)ccc3o2)cc1`, the TGI in assay [1], in assay [2], in assay [3], in [4], in assay [5] and in [6] was over 50 µM each time. The TGI in assay [7], in assay [8], in assay [9] and in assay [10] was over 50 µM in each case.

As for `COc1ccc(CN(Cc2ccc(OC)cc2)C(=O)CC2(O)C=CCC2)cc1` (stereo not drawn), the TGI in assay [1], in [2], in assay [3], in assay [4], in assay [5] and in assay [6] was over 100 µM in each case. Further, the TGI in [7], in assay [8], in assay [9] and in assay [10] was over 100 µM in each case.

Regarding `O=C(NS(=O)(=O)OCC(Cl)(Cl)Cl)SCCC(F)(F)C(F)(F)C(F)(F)C(F)(F)C(F)(F)C(F)(F)F`, the TGI in assay [1] is 72.4 µM; in assay [2], 35.5 µM; in [3] it was 98.4 µM; in assay [4] it was 92.7 µM; in assay [5] it was over 100 µM; in assay [6], 32.1 µM. The TGI in assay [7] was over 100 µM; in assay [8] it was 61.9 µM; in assay [9] it was 36.2 µM; in [10] it was 45.6 µM.

As for `CSc1ncnc2c1cnn2CCCCO`, the TGI in [1], in assay [2], in assay [3], in assay [4], in [5] and in [6] was over 100 µM in each case. Also, the TGI in assay [8], in assay [9] and in assay [10] was over 100 µM each time.

Regarding `COc1ccc(C(=O)/C=C/c2ccncc2)cc1OC`, the TGI in assay [1] worked out at 29.9 µM; in [2], 30.5 µM; in assay [3], 30.9 µM; in assay [4] it was 29.2 µM; in assay [5], 26.6 µM; in assay [6], 30.9 µM. For the same compound, the TGI in [7] came to 28.6 µM; in assay [8], 30.9 µM; in assay [9], 32.5 µM; in assay [10] it was 3.05 µM.

Regarding `O=C(CCc1cc(O)cc(O)c1)NCCc1cc(O)cc(O)c1`, the TGI in assay [1], in assay [2], in [3], in assay [4], in assay [5] and in [6] was over 100 µM in each case. For the same compound, the TGI in assay [7], in assay [8], in assay [9] and in assay [10] was over 100 µM each time.

As to `CC(=O)OC1O[C@@H](C(C)(C)O)CC[C@@H]1[C@H]1CC[C@@]2(C)C3=C(CC[C@]12C)[C@@]1(C)C[C@@H](OC(=O)CC(C)(O)CC(=O)O)[C@H](OC(C)=O)C(C)(C)C1CC3` (stereo partly drawn), the TGI in assay [1] is 35.4 µM; in assay [2] it was 35.3 µM; in assay [3], 40.3 µM; in [4] it was 29.4 µM; in [5] it was 33.6 µM; in [6], 38.7 µM. Moreover, the TGI stood at 33.1 µM in assay [7], 33.8 µM in [8], 34.6 µM in [9] and 32.6 µM in assay [10].

For `CC1(C)OC2C(O)CN3CCS[C@H]3C2O1` (stereo partly drawn), the TGI in assay [1], in assay [2], in assay [3], in [4], in [5] and in assay [6] was over 100 µM in each case. Further, the TGI in assay [7], in [8], in [9] and in assay [10] was over 100 µM each time.

For the compound `O=C(/C=C/C=C/c1ccccc1)c1ccc2c(c1)CCCC2`, the TGI was over 100 µM in assay [1]; over 100 µM in assay [2]; 93.9 µM in assay [3]; over 100 µM in [4]; over 100 µM in [5]; over 100 µM in assay [6]. Further, the TGI in assay [7], in assay [8], in assay [9] and in [10] was over 100 µM in each case.

`O=C(O)CCN(CCC(=O)O)c1ccc(/C=C2\SC(=S)NC2=O)cc1`: the TGI in [1], in assay [2], in assay [3], in [4], in [5] and in assay [6] was over 100 µM in each case. For the same compound, the TGI in assay [7], in [8], in assay [9] and in assay [10] was over 100 µM throughout.

`NCCCNCCCCNCCCN`: the TGI is over 100 µM in assay [1]; 38.6 µM in assay [2]; 5.91 µM in assay [3]; 11.6 µM in [4]; 33.8 µM in [5]; over 53.9 µM in [6]. For the same compound, the TGI in assay [7] is over 100 µM; in assay [8] it was over 100 µM; in assay [9], over 100 µM; in [10], 30.5 µM.

In the case of `O=c1c2c(-c3ccccc3)onc2n(-c2ccccc2)c(=O)n1-c1ccccc1`, the TGI in assay [1] is 54.9 µM; in [2], 59.5 µM; in [3], over 100 µM; in assay [4], over 100 µM; in assay [5], 52.1 µM; in assay [6] it was over 100 µM. Also, the TGI was 45.5 µM in assay [7], over 100 µM in [8], over 100 µM in [9] and over 100 µM in assay [10].

With `NC12Oc3cc(O)cc(O)c3C1(c1ccc(Cl)cc1)c1c(O)cc(O)cc1O2` (stereo not drawn), the TGI in assay [1], in [2], in assay [3], in assay [4], in assay [5] and in assay [6] was over 100 µM in each case. Moreover, the TGI in [7], in assay [8], in assay [9] and in [10] was over 100 µM in each case.

Consider `Cc1cn(CCCCCOC(=O)NC(CCCN=C(N)N)C(=O)O)c(=O)[nH]c1=O` (stereo not drawn), for which the TGI in assay [1], in [2], in assay [3], in assay [4], in assay [5] and in assay [6] was over 100 µM throughout. Also, the TGI in [7] is over 100 µM; in assay [8] it was 74.3 µM; in [9], over 100 µM; in assay [10], over 100 µM.

Turning to `CC(C)(C)c1cc(C(CO)OCCOCCO)cc(C(C)(C)C)c1O` (stereo not drawn), the TGI in assay [1], in assay [2], in [3], in assay [4], in assay [5] and in [6] was over 100 µM in each case. For the same compound, the TGI in assay [7], in [8], in [9] and in assay [10] was over 100 µM each time.

On to `COc1ccc(-c2nc(SCC(=O)N/N=C/c3ccc(O)c(OC)c3)[nH]c2-c2ccc(OC)cc2)cc1`, for which the TGI in assay [1] was 71.7 µM; in [2], over 100 µM; in [3], over 100 µM; in assay [4] it was over 100 µM; in assay [6], over 100 µM; in [7], over 100 µM. Further, the TGI is 33.2 µM in assay [8], over 100 µM in [9] and 46.7 µM in assay [10].

For `Cc1cc(OCc2nnc3n2N=C(c2cc(F)c(Cl)cc2Cl)/C(=C/c2ccc(Cl)cc2)S3)ccc1Cl`, the TGI in assay [1] is over 100 µM; in assay [2], over 100 µM; in assay [3], over 100 µM; in assay [4], 49.9 µM; in [5], 52.8 µM; in [6], over 100 µM. In addition, the results for the TGI in [7], in assay [8] and in assay [10] were 39.7 µM, 45.9 µM and 50.1 µM, respectively.

For `CCOC(=O)c1cc(C2(O)CCN(CC(C)CC)C2=O)c(-c2cc(C)no2)[nH]1` (stereo not drawn), the TGI in assay [1], in assay [2], in [3], in assay [4], in assay [5] and in [6] was over 100 µM in each case. For the same compound, the TGI in assay [7], in assay [8], in assay [9] and in assay [10] was over 100 µM each time.

Turning to `COC(=O)C1(OC(=O)Sc2ccccc2)CCN(C)CC1`, the TGI is over 66.6 µM in assay [1]; over 84.6 µM in assay [2]; over 100 µM in assay [3]; 27.8 µM in assay [4]; 18.7 µM in [5]; over 69.1 µM in [6]. Further, the TGI in [7] was 52.7 µM; in assay [8] it was 45.8 µM; in [9], over 100 µM; in [10], 28.4 µM.

For `CCN(CC)C(=S)SS(=O)(=O)c1ccc(F)cc1`, the TGI in assay [1], in assay [2], in assay [3], in assay [4], in assay [6] and in assay [7] was over 100 µM throughout. Also, the TGI in [8] was over 100 µM; in [9], over 100 µM; in assay [10] it was 41.7 µM.

Consider `O=C(c1cc(Cl)cc(Cl)c1)N1CCN(C(=O)c2cc(Cl)cc(Cl)c2)C1=S`, for which the TGI was found to be 33.8 µM in assay [1]; 31.9 µM in [2]; 45.2 µM in assay [3]; 25.2 µM in assay [4]; 32.8 µM in assay [5]; 29.8 µM in assay [6]. Besides, the TGI was determined as 44.5 µM in assay [7], 31.6 µM in assay [8], 37.1 µM in [9] and 11.6 µM in [10].

As for `CC(=O)Nc1ccc(-c2nc3ccccc3s2)cc1`, the TGI was 45.8 µM in [1]; over 100 µM in [2]; over 100 µM in [3]; 53.8 µM in assay [4]; over 100 µM in assay [5]; 59.5 µM in assay [6]. Besides, the TGI in [7] is over 100 µM; in [8], 38.4 µM; in assay [9], over 100 µM; in assay [10], over 100 µM.

As to `Cc1ccc(-c2cc(-c3ccc(Cl)cc3)nc(/N=C3\C(=O)N(CN4CCOCC4)c4ccc(Cl)cc43)n2)cc1`, the TGI worked out at 51.8 µM in assay [1]; 89.4 µM in [2]; 79.8 µM in [3]; 85.5 µM in [4]; 33.1 µM in assay [5]; 84.4 µM in [6]. Also, the TGI in [7] was 55.4 µM; in assay [8] it was 56.7 µM; in [9], over 100 µM; in [10] it was over 100 µM.

Consider `Cn1c(N)c2c3c(sc2nc1=O)CCCC3`, for which the TGI in [1], in [2], in [3], in assay [4], in assay [5] and in assay [7] was over 75 µM throughout. The TGI in assay [8], in assay [9] and in assay [10] was over 75 µM throughout.

In the case of `CC1C[C@]2(C)C(=O)Nc3ccccc3[C@@H]2Nc2ccccc21` (stereo partly drawn), the TGI in [1] was 57.4 µM; in [2], 81.8 µM; in assay [3] it was over 100 µM; in [4], 74.3 µM; in [5], 78.2 µM; in [7] it was 28.9 µM. Further, the TGI was 53.4 µM in [8], over 100 µM in [9] and 30.8 µM in [10].

As for `CCOC(=O)c1ccc(C(=O)/C(C#N)=C2\CCCN2C)[nH]1`, the TGI in assay [1], in assay [2], in [3], in [4], in [5] and in assay [7] was over 100 µM throughout. The TGI in assay [8], in assay [9] and in assay [10] was over 100 µM each time.

The values above are taken from PubChem BioAssay (NCI).
